Laboratory results as given in article PMC7052167, “TCR–pMHC bond conformation controls TCR ligand discrimination” (Cellular and Molecular Immunology, 2019).

Tests used:
Assay type in all cases: cell-based, mouse
[1] = tested on: TCR–CD3ζ complex of 5C.C7 T cells; assay: Transmembrane TCR–CD3ζ FRET2 (GFP/Alexa Fluor 568), intramolecular TCR–CD3ζ distance; details: 10 μM PP2
Text: To determine the conformation of a single TCR–pMHC bond, a TCR and a pMHC were site-specifically labeled with the FRET acceptor Cy5 and the FRET donor Cy3, respectively.[8] The peptide within the MHC molecule was labeled with Cy3, and the TCR was labeled with the anti-TCR single-chain variable fragment (scFv) J1-Cy5 (Fig. 1a and Fig. S1a). The intermolecular distance between Cy3 and Cy5 provided a reasonable approximation of the conformation (or compactness) of the TCR–pMHC bond. The conformation of a single TCR–pMHC bond on the cell surface was measured by Cy3/Cy5 FRET (FRET1) (Fig. 1a) in real time by total internal reflection fluorescence (TIRF) microscopy (Fig. S1b). The Cy3/Cy5 inter-dye distance of a TCR–pMHC bond is denoted as the TCR–pMHC bond distance to describe the TCR–pMHC bond conformation in the following paragraphs. […] The real-time intramolecular distances of the TCR–CD3ζ complexes were measured by GFP/Alexa Fluor 568 FRET (FRET2) (Fig. 1a) using epifluorescence time-lapse microscopy (Fig. S1b).
It is not clear what induces the dissociation of CD3ζ from the membrane to initiate T-cell intracellular signaling. […] We tracked and measured the FRET efficiencies of each individual microcluster in real time. […]

[2] = tested on: 5C.C7 T cell; assay: T-cell calcium signaling (fluorescence imaging); details: 10 μM PP2; X-Rhod-5F indicator, 37 °C
Text: To understand how the TCR–pMHC bond conformation triggers T-cell signaling, we devised a fluorescence micropipette assay to measure real-time T-cell calcium signaling at the single-cell level. Fast single T-cell calcium flux was observed upon T cell/APC contact (bond formation). Consistently, the calcium signaling amplitude and speed were dependent on the peptide potency (Fig. 5e, f, Fig. S15, and Movie S7). To link the TCR conformational change to TCR signaling, we simultaneously plotted the association of the TCR–CD3ζ conformational change with the Ca^2+ signal against the stimulation time. […] Ca^2+ release in turn drives the dissociation of positively charged CD3ζ from the negatively charged phospholipids in the plasma membrane[32] to expose the CD3ζ ITAM domains for phosphorylation via a Ca^2+ signaling feedback loop (Fig. 5h).
(§1) To measure the TCR–pMHC bond distance by smFRET in the absence of CD4 binding, T cells were incubated with 10 μg/mL anti-CD4 antibody (GK 1.5, Biolegend) and 0.027 µg/µL of Cy5-J1 scFV for 30 min at 4 °C. After three washes, the cells were added to a lipid bilayer containing Cy3-pMHCs, and smFRET assays were performed in the continuous presence of 10 μg/mL anti-CD4 antibody at 37 °C using TIRF microscopy. […]

[3] = tested on: TCR microclusters of 5C.C7 T cells; assay: TCR microcluster formation at the T-cell synapse; details: 10 μM PP2
Text: TCRs form microclusters upon antigen stimulation (Movie S4). To measure the conformational dynamics of single TCR–pMHC bonds without possible interference from TCR microclusters, we used latrunculin A (LA) to prevent the formation of TCR microclusters during smFRET measurements. […] We then performed smFRET in the absence of TCR microclusters.
To test whether TCR–CD3ζ conformational changes were dependent on TCR signaling, we used an Src kinase inhibitor PP2[27] to block TCR signaling. Consistent with the results of a previous study,[21] […] To reveal the role of TCR signaling in TCR–CD3ζ conformational changes, we plotted the time trajectories of the normalized intramolecular TCR–CD3ζ distances against the stimulation time in the absence and presence of PP2 (Fig. 4d). In the absence of PP2, the intracellular CD3ζ chain quickly separated from the TCR extracellular domain upon TCR engagement with the K5 pMHC and then reached a stable, fully extended TCR–CD3ζ conformation.
as §1

Q: Which results are given for CC(C)(C)n1nc(-c2ccc(Cl)cc2)c2c(N)ncnc21 [PP2]?
A: effect of PP2 on TCR–CD3ζ conformational change ([1]; K5 pMHC, 37 °C): completely abolished the TCR-CD3 conformational change; effect of PP2 on TCR–CD3ζ conformational change (MCC and 102S) ([1]; MCC and 102S pMHCs, Fig. S11): this effect of TCR signaling was also found; effect of PP2 on T-cell calcium signaling [2]: completely abrogated T-cell calcium signaling; effect of PP2 on TCR microcluster formation [3]: TCRs could still form microclusters
